From paper PMC6554663, “Pharmaceutical Effects of Inhibiting the Soluble Epoxide Hydrolase in Canine Osteoarthritis” (Frontiers in Pharmacology, 2019)
Converted amounts (≈) assume the structure as drawn. “And” between values parts separate entries of the source, which are not always exact repeats. Equal entries are not always repeated. Where two headings read alike, the source gives them in different places.

Legend:
[1] = Solubility of sEHI; type: physicochemical
Experimental: […] The non-dissolved compounds were filtered through a 0.22 μm centrifuge filter at 40°C and the supernatant was further diluted 10 times with methanol. The samples were analyzed by LC/MS-MS.

[2] = Blood and synovial fluid concentrations in treated osteoarthritic dogs; type: in vivo, dog; conditions: for Blood concentration D5 / Synovial fluid concentration D1 / Synovial fluid concentration D5: po, qd x 5, detected EC3039, individual dogs;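 for Synovial fluid concentration D1: synovial fluid also sampled on Day 1 after the pain assessment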
Experimental: (§1) Eight satellite dogs (2 per each group) had whole blood collected for PK analysis on study Days […]. On Day 1, blood was collected immediately prior to dosing, and again at 0.25, 0.5, 1, 2, 4, 6, and 8 (±5 min) after dosing. On Day 2 through 4, blood was collected 0.5 h (±5 min) after dosing. On Day 5 blood was collected immediately prior to dosing, and again at 0.25, 0.5, 1, 2, 4, 6, 8 (±5 min), 24, 48, and 72 h (±30 min) post treatment. […] For all blood samples, a minimum of 3 mL of whole blood was collected from a suitable vein as per written and approved standard operating procedures. The blood was transferred to K2EDTA (spray dried) blood tube and inverted gently multiple times to ensure proper mixing of the blood and anticoagulant. On study Day 5, synovial fluid was collected by arthrocentesis immediately after the subject completed the questionnaire (approximately […] after dosing). Subjects were anesthetized as per written and approved Standard Operating Procedures. A minimum of 0.1 mL of synovial fluid was collected from each subject. Samples were frozen in an upright position and stored at -80°C ± 4°C before being shipped to UC Davis for analysis.
Pain and function were assessed by a questionnaire answered by blinded technicians based on observation of study animals housed at InterVivo. The survey was adapted from the canine brief pain inventory (CBPI), which was developed based on clinical questionnaires in which owners score the function and pain level of their pets with existing pain conditions ([Brown et al., 2007]). Modifications to the questionnaire attempted to account for differences between owner pain evaluation of pets and pain evaluation of laboratory dogs by technical staff. For survey administration, blinded technicians attempted to elicit objective behavior-specific measures of function and pain level across a variety of normal canine behaviors (e.g., walking, trotting, galloping, rearing, and stair-climbing, etc.). For this, one technician was responsible for soliciting the relevant behaviors from a dog using encouragement and/or food rewards, while the evaluating technician scored function and observable pain using the modified CBPI questionnaire. Subjects were tested daily on Days -7 through -3, to develop baseline scores, and again on Days 1 through 5 administered 1.5 h after dosing. Dosing occurred in the morning, and observations were recorded 1.5 h after dosing, to limit time-of-day variability. Questions are listed in Supplementary Table S3. Animals in treatment groups had blood and synovial fluid collected ∼2 h after the last dose on day 5 (immediately following the study questionnaire) to confirm plasma concentrations in treated animals. Full pharmacokinetic assessments were collected from a satellite group of animals so as not to interfere with pain assessment.

[3] = Microsomal stability; type: in vitro ADME, dog; conditions: 60 min, 37°C
Experimental: Male and female dog liver microsomes (Xenotech) were diluted in potassium phosphate buffer (0.1M, pH 7.4), MgCl2 (3.15 mM), and sodium EDTA (1.05 mM) to a final protein concentration of 1 mg/mL. Compounds were added at 0.1 mM in methanol at 1% and microsomes were activated with 5% (v/v) NADPH regenerating system (100 μL sodium phosphate buffer (0.1M, pH 7.4), 50 μL, glucose-6-phosphate in sodium phosphate buffer (0.1M, pH 7.4), 50 μL NADP+ in sodium phosphate (0.1M, pH 7.4), and 50 μL of 100 Units/mL of […]). […] Compounds were incubated without microsomes or NADPH as negative controls.

[4] = PK analysis in satellite dogs; type: in vivo, dog; conditions: for half-life / AUC(0-t) / Cmax: whole blood; for AUC(0-t) / Cmax: po
Experimental: as §1
For PK analysis in the satellite group, individual parameters were calculated by fitting blood concentrations to a non-compartmental analysis using Kinetica software (Thermo Fisher Scientific version 5.1). Using the log-linear trapezoidal method, the area under the curve were calculated and were extrapolated to infinity using the last measured plasma concentration (Clast), defined as the timepoint collected 72 h after the last dose or 8 hr after the first dose on day 1, divided by the terminal slope (λz).

[5] = female, beagle, dog, 1 mg/kg, dosed EC3039 1 mg/kg oral qd, female dog, Day 1, detected EC3039, blood
[6] = female, beagle, dog, 1 mg/kg, dosed EC3039 1 mg/kg oral qd, female dog, Day 5, detected EC3039, blood
[7] = female, beagle, dog, 5 mg/kg, dosed EC3039 5 mg/kg oral qd, female dog, Day 1, detected EC3039, blood
[8] = female, beagle, dog, 5 mg/kg, dosed EC3039 5 mg/kg oral qd, female dog, Day 5, detected EC3039, blood
[9] = male, beagle, dog, 1 mg/kg, dosed EC3039 1 mg/kg oral qd, male dog, Day 1, detected EC3039, blood
[10] = male, beagle, dog, 1 mg/kg, dosed EC3039 1 mg/kg oral qd, male dog, Day 5, detected EC3039, blood
[11] = male, beagle, dog, 5 mg/kg, dosed EC3039 5 mg/kg oral qd, male dog, Day 1, detected EC3039, blood

solubility ([1]; PEG300, organic solvent or mixture): 99 ± 1 mg/mL (≈ 219 mM) | solubility at 24 h ([1]; aqueous buffer, thermodynamic from solid, PBS pH 7.4, 40°C, 24 h): 0.13 ± 0.015 mg/mL (≈ 0.287 mM) | sEHI in blood and synovial fluid relative to dogs treated with EC1728 ([2]; high dose group (5 mg/kg)): ~10 × | sEHI in blood and synovial fluid relative to dogs treated with EC1728 ([2]; low dose group (1 mg/kg)): approximately 2 × | melting point: 92.4 to 94.7 °C | % Parent + NADPH ([3]; female dog liver microsomes): 85% and 85 ± 2% | % Parent − NADPH ([3]; female dog liver microsomes): 93 ± 5% | % Parent − NADPH ([3]; male dog liver microsomes): 97 ± 4% | EC3039 in blood of dogs administered EC1728 ([4]; EC1728 at 1 mg/kg or 5 mg/kg): no detectable amounts | blood concentrations relative to IC50 for sEH ([4]; all treatment groups, duration of the study): exceeded the IC50 | fold increase in AUC after fivefold increase in dose ([4]; beagle, dog, in vivo): ~18 fold | fold increase in Cmax after fivefold increase in dose ([4]; beagle, dog, in vivo): 30 to 40 fold | half-life ([4]; beagle, dog, oral, satellite dogs, range over both compounds, Table 3, read-out: half-life): 24 to 40 h | half-life ([4]; beagle, dosed EC3039 1 mg/kg oral qd, female dog, Day 5, detected EC3039, blood, read-out: T1/2 (converted)): 40 h | half-life ([4]; beagle, dosed EC3039 1 mg/kg oral qd, male dog, Day 5, detected EC3039, blood, read-out: T1/2 (converted)): 33 h | half-life ([4]; beagle, dosed EC3039 5 mg/kg oral qd, female dog, Day 5, detected EC3039, blood, read-out: T1/2 (converted)): 25 h | half-life ([4]; beagle, dosed EC3039 5 mg/kg oral qd, male dog, Day 5, detected EC3039, blood, read-out: T1/2 (converted)): 27 h | portion metabolized by demethylation to form EC1728 ([4]; dogs dosed EC3039): < 10% | AUC(0-t) [4, 5]: 3940 ng·h/mL | Cmax [4, 5]: 568 ng/mL | AUC(0-t) [4, 6]: 361000 ng·h/mL | Cmax [4, 6]: 17300 ng/mL | AUC(0-t) [4, 7]: 67200 ng·h/mL | Cmax [4, 7]: 18000 ng/mL | AUC(0-t) [4, 8]: 589000 ng·h/mL | Cmax [4, 8]: 30900 ng/mL | AUC(0-t) [4, 9]: 2490 ng·h/mL | Cmax [4, 9]: 400 ng/mL | AUC(0-t) [4, 10]: 72100 ng·h/mL | Cmax [4, 10]: 2300 ng/mL | AUC(0-t) [4, 11]: 46500 ng·h/mL | Cmax [4, 11]: 16900 ng/mL | Cmax ([4]; male, beagle, dog, 5 mg/kg, dosed EC3039 5 mg/kg oral qd, male dog, Day 5, detected EC3039, blood): 32100 ng/mL
SMILES: CN(C(=O)N[C@H]1CC[C@H](Oc2ccc(C(=O)O)cc2)CC1)c1ccc(OC(F)(F)F)cc1 [EC3039, trans-4-{4-[3-methyl-3-(4-trifluoromethoxy-phenyl)-ureido]-cyclohexyloxy}-benzoic acid]
Blood concentration D5 ([2]; dosed EC3039 1 mg/kg, 1 mg/kg): 126 ng/mL and 176 ng/mL and 5340 ng/mL and 347 ng/mL and 346 ng/mL and 81 ng/mL and 408 ng/mL and 328 ng/mL | Synovial fluid concentration D1 ([2]; dosed EC3039 1 mg/kg, 1 mg/kg): 1220 ng/mL and 2710 ng/mL and 4100 ng/mL and 3350 ng/mL and 3100 ng/mL and 1390 ng/mL and 3430 ng/mL and 2100 ng/mL | Synovial fluid concentration D5 ([2]; dosed EC3039 1 mg/kg, 1 mg/kg): 1630 ng/mL and 1480 ng/mL and 11900 ng/mL and 1840 ng/mL and 1440 ng/mL and 586 ng/mL and 2190 ng/mL and 1930 ng/mL | Blood concentration D5 ([2]; dosed EC3039 5 mg/kg, 5 mg/kg): 859 ng/mL and 672 ng/mL and 5550 ng/mL and 6250 ng/mL and 722 ng/mL and 6190 ng/mL and 5650 ng/mL and 929 ng/mL | Synovial fluid concentration D1 ([2]; dosed EC3039 5 mg/kg, 5 mg/kg): 5850 ng/mL and 13570 ng/mL and 14290 ng/mL and 14240 ng/mL and 5220 ng/mL and 14300 ng/mL and 14700 ng/mL and 9520 ng/mL | Synovial fluid concentration D5 ([2]; dosed EC3039 5 mg/kg, 5 mg/kg): 5830 ng/mL and 4640 ng/mL and 9960 ng/mL and 12400 ng/mL and 16100 ng/mL and 11700 ng/mL and 5960 ng/mL
